Test: Heparin affinity chromatography
Type: binding
Settings: TSKgel Heparin-5PW column, 10 mM phosphate buffer, pH 7.2
Experimental: Heparin binding chromatography was performed by high performance liquid chromatography (HPLC; Shimadzu, Japan). A linear gradient of mobile phase A (10 mM phosphate buffer, pH 7.2) and mobile phase B (0.75 M NaCl in 10 mM phosphate buffer, pH 7.2) was used with a TSKgel Heparin-5PW column ([…], 10 μm; Tosoh Bioscience, Japan).

For SIGGIR, the “binding to heparin HPLC affinity column” value was “did not bind”.

Reference: publication PMC5743680, “Bleogens: Cactus-Derived Anti-Candida Cysteine-Rich Peptides with Three Different Precursor Arrangements” (Frontiers in Plant Science, 2017)
